# Biological target: T1, CCK-Receptor (Rattus norvegicus, UniProt P30551)
# T1 construct: Pancreatic plasma membranes were prepared by the method of Chang et al; from tissue; host or cells: pancreatic plasma membranes of male Wistar rats
# T1 sequence (P30551 1-444): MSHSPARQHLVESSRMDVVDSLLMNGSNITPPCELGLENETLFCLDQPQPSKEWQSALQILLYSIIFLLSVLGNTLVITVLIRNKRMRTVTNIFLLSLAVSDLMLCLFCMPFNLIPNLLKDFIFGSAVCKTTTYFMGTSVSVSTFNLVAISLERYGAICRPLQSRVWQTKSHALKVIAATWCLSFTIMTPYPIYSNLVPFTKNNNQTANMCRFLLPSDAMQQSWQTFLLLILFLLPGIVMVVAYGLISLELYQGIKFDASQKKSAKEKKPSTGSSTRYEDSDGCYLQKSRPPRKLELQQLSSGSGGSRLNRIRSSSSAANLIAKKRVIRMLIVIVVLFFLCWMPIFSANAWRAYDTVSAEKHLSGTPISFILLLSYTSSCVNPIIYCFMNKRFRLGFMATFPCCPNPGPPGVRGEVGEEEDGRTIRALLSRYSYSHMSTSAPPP
# Test: CCK-Receptor Binding Assay in Pancreas
# Design: species or system Male Wistar rats
# Details: inhibition of specific 125I-CCK-8 (30 pM) binding, rat pancreatic plasma membranes, 37° C., 30 minutes, pH 7.4
# Experimental: CCK-Receptor Binding Assay in Pancreas
# Pancreatic plasma membranes were prepared by the method of Chang et al. (Molecular Pharmacology, Vol. 30, p. 212-, 1986). Male Wistar rats were sacrificed by decapitation and the pancreas was removed. The pancreas was dissected free from adipose tissue and minced in 50 volumes ice-cold Tris-HCl buffer (50 mM, pH 7.4 at 37° C.). Homogenization was performed using ultra disperser and the homogenate was centrifuged at 50,000×g for 10 minutes. The pellet was washed by resuspension in the same volume of fresh Tris-HCl buffer and again centrifuged as above. The final pellet was suspended in assay buffer (50 mM Tris-HCl, 5 mM MgCl2, 5 mM dithiothreitol, 2 mg/ml of bovine serum albumin, and 0.14 mg/ml of bacitracin), and used as receptor sources for binding assay.
# Thirty pM ^125 I-CCK-8 (final concentration), test drug or vehicle (for total binding) or 10^-6 M CCK-8 (for nonspecific binding) were added to the assay medium containing pancreatic plasma membranes (0.5 mg of original wet weight/ml). After incubation at 37° C. for 30 minutes, the assay medium was filtrated under reduced pressure through glass fiber filter and washed four times with 4 ml of ice-cold Tris-HCl buffer. The radioactivity trapped on the filter was counted by γ-counter (Packard 5650).
# Specific binding was defined as the radioactivity bound after subtracting nonspecific binding determined in the presence of 10^-6 M unlabeled CCK-8. IC50 value was calculated from inhibition percentage of specific binding by each test drug.
row,Compound,IC50 [µM]
1,CCCCCN(CCCCC)C(=O)C(CCC(=O)O)CS(=O)(=O)c1cccc(Cl)c1 (racemic) [Compound 27],4.7
2,CCCCCN(CCCCC)C(=O)C(CCC(=O)O)CS(=O)(=O)c1cccc(Br)c1 (racemic) [Compound 28],3
3,CCCCN(C)C(=O)C(CCC(=O)O)CS(=O)(=O)c1ccc(Cl)c(Cl)c1 (racemic) [Compound 31],8.8
4,"CCCCCN(CCCCC)C(=O)C(CCC(=O)O)CS(=O)(=O)c1ccc(Cl)c(Cl)c1 (single isomer, unassigned) [Compound 21]",1.1
5,"CCCCCN(CCCOC)C(=O)C(CCC(=O)O)CS(=O)(=O)c1ccc(Cl)c(Cl)c1 (single isomer, unassigned) [Compound 24]",4
6,CCCCCN(CCCCC)C(=O)C(CCCC(=O)OC)CS(=O)(=O)c1ccc(Cl)c(Cl)c1 (stereo not drawn) [Compound 12],4.8
7,CCCCCN(CCCCC)C(=O)C(CCC(=O)OCC)CS(=O)(=O)c1ccc(Cl)c(Cl)c1 (stereo not drawn) [Compound 18],1.1
8,CCCCCN(CCCCC)C(=O)C(CCC(=O)O)CS(=O)(=O)c1cc(Cl)cc(Cl)c1 (stereo not drawn) [Compound 25],1.5
9,CCCCCCN(CCCCc1ccccc1)C(=O)C(CCC(=O)OC)CS(=O)(=O)c1ccc(Cl)c(Cl)c1 (stereo not drawn) [Compound 40],5.8
10,"COC(=O)CCC(CS(=O)(=O)c1ccc(Cl)c(Cl)c1)C(=O)N(C)Cc1ccccc1 (stereo not drawn) [Compound 41, methyl 4-(N-benzyl-N-methylcarbamoyl)-5-(3,4-dichlorophenylsulfonyl)pentanoate]",3.5
11,O=C(O)CCC(CS(=O)(=O)c1ccc(Cl)c(Cl)c1)C(=O)N(CCCc1ccccc1)CCCc1ccccc1 (stereo not drawn) [Compound 45],1
12,CN(Cc1ccccc1)C(=O)C(CCC(=O)O)CS(=O)(=O)c1ccc(Cl)c(Cl)c1 (stereo not drawn) [Compound 47],1.8
13,CCCCCN(CCCCC)C(=O)C(CCC(=O)O)CS(=O)(=O)c1ccc(C)cc1 (stereo not drawn) [Compound 49],3.4
14,"CCCCCN(CCCCC)C(=O)C(CCC(=O)O)CS(=O)(=O)c1ccc(C(C)=O)cc1 (stereo not drawn) [Compound 51, 5-(4-Acetylphenylsulfonyl)-4-(N,N-dipentylcarbamoyl)pentanoic acid]",2

# More lines, in order of falling IC50, values ahead:
row,IC50 [µM],Compound
1,1,CCCCCN(CCCCC)C(=O)C(CCC(=O)O)CS(=O)(=O)c1ccc(Cl)cc1 (stereo not drawn) [Compound 26]
2,0.98,CCCCCN(CCCCC)C(=O)C(CC(=O)OC)CS(=O)(=O)c1ccc(Cl)c(Cl)c1 (stereo not drawn) [Compound 11]
3,0.88,"CCCCCN(CCCCC)C(=O)C(CCC(=O)OC)CS(=O)(=O)c1ccc(Cl)c(Cl)c1 (racemic) [Compound 1, Methyl 5-(3,4-dichlorophenylsulfonyl)-4-(N,N-dipentylcarbamoyl)pentanoate]"
4,0.73,CCCCCN(CCCCC)C(=O)C(CCC(=O)O)CS(=O)(=O)c1ccc([N+](=O)[O-])cc1 (stereo not drawn) [Compound 50]
5,0.57,CCCCCCN(CCCCc1ccccc1)C(=O)C(CCC(=O)O)CS(=O)(=O)c1ccc(Cl)c(Cl)c1 (stereo not drawn) [Compound 46]
6,0.43,CCCCCCCN(CCCCCCC)C(=O)C(CCC(=O)O)CS(=O)(=O)c1ccc(Cl)c(Cl)c1 (racemic) [Compound 34]
7,0.29,"CCCCCN(CCCOC)C(=O)C(CCC(=O)O)CS(=O)(=O)c1ccc(Cl)c(Cl)c1 (single isomer, unassigned) [Compound 23]"
8,0.29,CCCCCN(CCCCC)C(=O)C(CCC(=O)O)CS(=O)(=O)c1ccc(C)c(C)c1 (stereo not drawn) [Compound 48]
9,0.28,CCCCN(CCCC)C(=O)C(CCC(=O)O)CS(=O)(=O)c1ccc(Cl)c(Cl)c1 (racemic) [Compound 32]
10,0.23,"CCCCCN(CCCOC)C(=O)C(CCC(=O)O)CS(=O)(=O)c1ccc(Cl)c(Cl)c1 (racemic) [Compound 22, 5-(3,4-dichlorophenylsulfonyl)-4-[N-(3-methoxypropyl)-N-pentylcarbamoyl]pentanoic acid]"
11,0.23,CCCCCN(CCCCC)C(=O)C(CCCC(=O)O)CS(=O)(=O)c1ccc(Cl)c(Cl)c1 (racemic) [Compound 30]
12,0.23,O=C(O)CCC(CS(=O)(=O)c1ccc(Cl)c(Cl)c1)C(=O)N(CCc1ccccc1)CCc1ccccc1 (stereo not drawn) [Compound 44]
13,0.21,"CCCCCN(CCc1ccccc1)C(=O)C(CCC(=O)O)CS(=O)(=O)c1ccc(Cl)c(Cl)c1 (stereo not drawn) [Compound 42, 5-(3,4-dichlorophenylsulfonyl)-4-(N-pentyl-N-phenethylcarbamoyl)pentanoic acid]"
14,0.2,"CCCCCN(CCCCC)C(=O)C(CCC(=O)O)CS(=O)(=O)c1ccc(Cl)c(Cl)c1 (racemic) [Compound 19, 5-(3,4-Dichlorophenylsulfonyl)-4-(N,N-dipentylcarbamoyl)pentanoic acid]"
15,0.13,CC(C)CCN(CCC(C)C)C(=O)C(CCC(=O)O)CS(=O)(=O)c1ccc(Cl)c(Cl)c1 (racemic) [Compound 35]
16,0.11,"CCCCCN(CCCCC)C(=O)C(CCC(=O)O)CS(=O)(=O)c1ccc(Cl)c(Cl)c1 (single isomer, unassigned) [Compound 20]"
17,0.11,CCCCCN(CCCc1ccccc1)C(=O)C(CCC(=O)O)CS(=O)(=O)c1ccc(Cl)c(Cl)c1 (stereo not drawn) [Compound 43]
18,0.095,CCCCCN(CCCCC)C(=O)C(CC(=O)O)CS(=O)(=O)c1ccc(Cl)c(Cl)c1 (racemic) [Compound 29]
19,0.059,CCCCCCN(CCCCCC)C(=O)C(CCC(=O)O)CS(=O)(=O)c1ccc(Cl)c(Cl)c1 (racemic) [Compound 33]

# System: gallbladder contraction induced by CCK-8
# Test: CCK-Antagonism in Isolated Gallbladder
# Format: cell-based, male Hartley guinea-pig
# Details: Cavia porcellus; antagonism of gallbladder strip contraction induced by 10^-8 M CCK-8, 37° C.
# Experimental: CCK-Antagonism in Isolated Gallbladder
# Gallbladder strips isolated from male Hartley guinea-pig were prepared and suspended in Magnus bath filled with Krebs solution (1 g of initial tension). The solution kept at 37° C. was aerated with a mixture of 95% O2 and 5% CO2. The isometric contraction of strips was recorded through a force-displacement transducer. Antagonism by test drugs against gallbladder contraction induced by 10^-8 M CCK-8 was examined and IC50 value was calculated.
row,Compound,IC50 [µM]
1,"CCCCCN(CCCCC)C(=O)C(CCC(=O)O)CS(=O)(=O)c1ccc(Cl)c(Cl)c1 (racemic) [Compound 19, 5-(3,4-Dichlorophenylsulfonyl)-4-(N,N-dipentylcarbamoyl)pentanoic acid]",11
2,"CCCCCN(CCCOC)C(=O)C(CCC(=O)O)CS(=O)(=O)c1ccc(Cl)c(Cl)c1 (racemic) [Compound 22, 5-(3,4-dichlorophenylsulfonyl)-4-[N-(3-methoxypropyl)-N-pentylcarbamoyl]pentanoic acid]",3.4
3,"CCCCCN(CCCCC)C(=O)C(CCC(=O)O)CS(=O)(=O)c1ccc(Cl)c(Cl)c1 (single isomer, unassigned) [Compound 20]",5.1

# System: amylase secretion stimulated by CCK-8
# Test: Effect on Amylase Secretion in Rats
# Format: in vivo, Male Wistar rats
# Details: Rattus norvegicus, intraduodenal administration 30 minutes before CCK-8 (10 μg/kg, subcutaneous), anesthetized rats
# Experimental: Effect on Amylase Secretion in Rats
# Male Wistar rats were anesthetized with urethane (1.5 g/kg, S.C.), and tracheal cannula was inserted. Biliopancreatic juice was collected from the cannula which had been inserted into the common bile duct. Thirty minutes after intraduodenal administration of test drug, amylase secretion was stimulated by subcutaneous injection of CCK-8 (10 μg/kg). Amylase concentration in the sample collected every 30 minutes during experiment was assayed using Amylase B Test (Wako), and ED50 value was calculated.
row,Compound,ED50 [mg/kg]
1,"CCCCCN(CCCCC)C(=O)C(CCC(=O)O)CS(=O)(=O)c1ccc(Cl)c(Cl)c1 (racemic) [Compound 19, 5-(3,4-Dichlorophenylsulfonyl)-4-(N,N-dipentylcarbamoyl)pentanoic acid]",2.2
2,"CCCCCN(CCCOC)C(=O)C(CCC(=O)O)CS(=O)(=O)c1ccc(Cl)c(Cl)c1 (racemic) [Compound 22, 5-(3,4-dichlorophenylsulfonyl)-4-[N-(3-methoxypropyl)-N-pentylcarbamoyl]pentanoic acid]",9.5
3,"CCCCCN(CCCCC)C(=O)C(CCC(=O)O)CS(=O)(=O)c1ccc(Cl)c(Cl)c1 (single isomer, unassigned) [Compound 20]",4.7

# From patent publication US5145869A, “Phenylsulfonylalkanoic acid compounds and pharmaceuticals thereof” (Kissei Pharmaceutical Co., Ltd., priority 1991, dated 1992)
